The values that follow are results of earlier work, collected in patent US20240041893A1, “An Extended-Release Pharmaceutical Formulation of Viloxazine And Process For Preparation Thereof” (Innovate Therapeutics LLC, priority 2023, published 2024).

The test system of this series is norepinephrine reuptake.

Turning to `CCOc1ccccc1OC[C@@H]1CNCCO1` [(S)-(−)-isomer], the “pharmacological activity relative to the (R)-(+)-isomer” value is recorded as “five times”.
